# Test results from patent publication US6514997B2, “Antipicornaviral compounds and compositions, their pharmaceutical uses, and materials for their synthesis” (Agouron Pharmaceuticals, Inc., priority 1999, dated 2003).
# Where two headings read alike, the source gives them in different places.
# Key:
# [1] = target: T1, Recombinant rhinovirus 3C protease, serotype 14 (Human rhinovirus 14, UniProt P03303); assay: Inhibition of rhinovirus 3C protease (FRET assay, kobs/[I]), serotype 14; type: biochemical; details: pH 7.6, read-out: kobs/[I] (3C protease inhibition activity)
# T1 construct: Recombinant rhinovirus 3C proteases; made in house
# How it was run: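 Enzyme-start FRET assay with ~1 μM DABCYL/EDANS peptide substrate and 50-100 nM recombinant protease in 50 mM tris pH 7.6, 1 mM EDTA, 2% DMSO. Cleavage followed as fluorescence increase; kobs/[I] derived from progress curves.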
# HRV-14 = assay: Antirhinoviral H1-HeLa cell culture assay (XTT cell protection, EC50), HRV-14; type: cell-based, human rhinovirus (HRV) serotype-14 in H1-HeLa cells; details: Rhinovirus B, HRV14, H1-HeLa
# How it was run: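 H1-HeLa cells were infected with HRV-14 at m.o.i. 0.13, or mock-infected, and incubated with compound for two days. Cell protection was read by XTT/PMS formazan absorbance at 450/650 nm to give EC50. CC50 came from mock-infected cells, and TI = CC50/EC50.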
# [2] = Cytotoxicity (CC50) in mock-infected H1-HeLa cells, XTT dye reduction; type: cell-based, human; details: human, H1-HeLa cells, mock-infected
# How it was run: (§1)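 H1-HeLa cells mock-infected, read by XTT/PMS formazan at 450/650 nm.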
# H1-HeLa cells = assay: as above; type: cell-based, human
# How it was run: as §1
# [3] = tested on: strains of human rhinovirus (HRV); assay: Antirhinoviral H1-HeLa cell culture assay (XTT cell protection, EC50), other HRV strains; type: cell-based, human rhinovirus in H1-HeLa cells; details: read-out: EC50
# How it was run: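 H1-HeLa cells infected, or mock-infected, were incubated with compounds for two days. Cell protection measured by XTT/PMS formazan absorbance at 450/650 nm; TI taken as CC50 divided by EC50.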
# [4] = Human rhinovirus sp., HRV9, H1-HeLa, HRV-9
# [5] = Human rhinovirus sp., HRV10, H1-HeLa, HRV-10
# [6] = Human rhinovirus sp., HRV25, H1-HeLa, HRV-25
# [7] = Human rhinovirus sp., HRV3, H1-HeLa, HRV-3
# [8] = Human rhinovirus sp., HRV13, H1-HeLa, HRV-13
# [9] = Human rhinovirus sp., HRV16, H1-HeLa, HRV-16
# [10] = Human rhinovirus sp., HRV39, H1-HeLa, HRV-39
# [11] = Human rhinovirus sp., HRV78, H1-HeLa, HRV-78
# T1 sequence (P03303 1538-1719): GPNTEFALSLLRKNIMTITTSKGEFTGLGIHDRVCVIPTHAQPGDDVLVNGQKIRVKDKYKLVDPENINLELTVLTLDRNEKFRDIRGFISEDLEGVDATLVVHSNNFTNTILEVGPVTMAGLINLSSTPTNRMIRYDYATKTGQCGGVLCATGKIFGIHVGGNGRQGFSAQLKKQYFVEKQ
structure (smiles),measurement,setting,value
"C#CC[C@@H](C(=O)N[C@H](/C=C/C(=O)OC1CCCCCC1)C[C@@H]1CCNC1=O)n1cccc(NC(=O)c2cc(C)on2)c1=O [Compound 57, trans-(2′S,3′″″S,4S)-4-[2′-(3″-{[1′″-(5″″-Methylisoxazol-3″″-yl)methanoyl]amino}-2′″-oxo-2′″H-pyridin-1′″-yl)pent-4″-ynoylamino]-5-(2′″″-oxopyrrolidin-3′″″-yl)pent-2-enoic Acid Cycloheptyl Ester]",kinact/KI,[1]; HRV-14 3C protease,47000 M⁻¹ s⁻¹
same,EC50,HRV-14,422 nM
same,CC50 at 2 days,[2]; HRV-14,> 10000 nM
same,CC50,H1-HeLa cells; HRV-1A,> 10000 nM
same,CC50,H1-HeLa cells; HRV-9,> 10000 nM
same,CC50,H1-HeLa cells; HRV-10,> 10000 nM
same,CC50,H1-HeLa cells; HRV-25,> 10000 nM
same,EC50,"[3]; H1-HeLa, HRV-1A",1610 nM
same,EC50,[3]; [4],1500 nM
same,EC50,[3]; [5],482 nM
same,EC50,[3]; [6],511 nM
"Cc1cc(C(=O)Nc2cccn([C@@H](Cc3ccc(F)c(F)c3)C(=O)N[C@H](/C=C/C(=O)OC3CCC3)C[C@@H]3CCNC3=O)c2=O)no1 [Compound 58, trans-(2′S,3″″″S,4S)-4-[3′-(3″,4″-Difluorophenyl)-2′-(3′″-{[1″″-(5′″″-methylisoxazol-3′″″-yl)methanoyl]amino}-2″″-oxo-2″″H-pyridin-1″″-yl)propanoylamino]-5-(2″″″-oxopyrrolidin-3″″″-yl)pent-2-enoic Acid Cyclobutyl Ester]",kinact/KI,[1]; HRV-14 3C protease,2.2e+06 M⁻¹ s⁻¹
same,EC50,HRV-14,3 nM
same,CC50 at 2 days,[2]; HRV-14,> 10000 nM
same,CC50,H1-HeLa cells; HRV-1A,> 10000 nM
same,CC50,H1-HeLa cells; HRV-2,> 10000 nM
same,CC50,H1-HeLa cells; HRV-3,> 10000 nM
same,CC50,H1-HeLa cells; HRV-9,> 10000 nM
same,CC50,H1-HeLa cells; HRV-10,> 10000 nM
same,CC50,H1-HeLa cells; HRV-11,> 10000 nM
same,CC50,H1-HeLa cells; HRV-13,> 10000 nM
same,CC50,H1-HeLa cells; HRV-16,> 10000 nM
same,CC50,H1-HeLa cells; HRV-19,> 10000 nM
same,CC50,H1-HeLa cells; HRV-23,> 10000 nM
same,CC50,H1-HeLa cells; HRV-25,> 10000 nM
same,CC50,H1-HeLa cells; HRV-39,> 10000 nM
same,CC50,H1-HeLa cells; HRV-78,> 10000 nM
same,CC50,H1-HeLa cells; HRV-Hanks,> 10000 nM
same,EC50,"[3]; H1-HeLa, HRV-1A",14 nM
same,EC50,"[3]; H1-HeLa, HRV-2",13 nM
same,EC50,"[3]; H1-HeLa, HRV-23",8 nM
same,EC50,"[3]; Human rhinovirus sp., H1-HeLa, HRV-Hanks",21 nM
same,EC50,[3]; [7],5 nM
same,EC50,[3]; [4],47 nM
same,EC50,[3]; [5],11 nM
same,EC50,"[3]; Human rhinovirus sp., HRV11, H1-HeLa, HRV-11",5 nM
same,EC50,[3]; [8],24 nM
same,EC50,[3]; [9],14 nM
same,EC50,"[3]; Human rhinovirus sp., HRV19, H1-HeLa, HRV-19",17 nM
same,EC50,[3]; [6],16 nM
same,EC50,[3]; [10],20 nM
same,EC50,[3]; [11],14 nM
"CC[C@@H](C(=O)N[C@H](/C=C/C(=O)OC1CCCC1)C[C@@H]1CCNC1=O)n1cccc(NC(=O)c2cc(Cl)on2)c1=O [Compound 29, trans-(2′S,3″″S,4S)-4-(2′-{3″-[(5′″-Chloroisoxazole-3′″-carbonyl)amino]-2″-oxo-2″H-pyridin-1″-yl}butyrylamino)-5-(2″″-oxopyrroldin-3″″-yl)pent-2-enoic Acid Cyclopentyl Ester]",kinact/KI,[1]; HRV-14,148000 M⁻¹ s⁻¹
same,EC50,HRV-14,79 nM
same,CC50 at 2 days,[2]; line of HRV-14,> 10000 nM
same,CC50,H1-HeLa cells; line of HRV-1A,> 10000 nM
same,CC50,H1-HeLa cells; line of HRV-10,> 10000 nM
same,EC50,"[3]; H1-HeLa, HRV-1A",46 nM
same,EC50,[3]; [5],46 nM
"Cc1cc(C(=O)Nc2cccn([C@@H](Cc3ccc(F)c(F)c3)C(=O)N[C@H](/C=C/C(=O)OC3CCCC3)C[C@@H]3CCNC3=O)c2=O)no1 [Compound 49, trans-(2′S,3″″″S,4S)-4-[3′-(3″,4″-Difluorophenyl)-2′-(3′″-{[1″″-(5′″″-methylisoxazol-3′″″-yl)methanoyl]amino}-2″″-oxo-2″″H-pyridin-1″″-yl)propanoylamino]-5-(2″″″-oxopyrrolidin-3″″″-yl)pent-2-enoic Acid Cyclopentyl Ester]",kinact/KI,[1]; HRV-14,1.2e+06 M⁻¹ s⁻¹
same,EC50,HRV-14,4 nM
same,CC50 at 2 days,[2]; line of HRV-14,> 10000 nM
same,CC50,H1-HeLa cells; line of HRV-1A,> 10000 nM
same,CC50,H1-HeLa cells; line of HRV-2,> 10000 nM
same,CC50,H1-HeLa cells; line of HRV-3,> 10000 nM
same,CC50,H1-HeLa cells; line of HRV-9,> 10000 nM
same,CC50,H1-HeLa cells; line of HRV-10,> 10000 nM
same,CC50,H1-HeLa cells; line of HRV-16,> 10000 nM
same,CC50,H1-HeLa cells; line of HRV-25,> 10000 nM
same,CC50,H1-HeLa cells; line of HRV-39,> 10000 nM
same,EC50,"[3]; H1-HeLa, HRV-1A",131 nM
same,EC50,"[3]; H1-HeLa, HRV-2",83 nM
same,EC50,[3]; [7],41 nM
same,EC50,[3]; [4],95 nM
same,EC50,[3]; [5],76 nM
same,EC50,[3]; [9],32 nM
same,EC50,[3]; [6],371 nM
same,EC50,[3]; [10],145 nM
"CCOC(=O)/C=C/[C@H](C[C@@H]1CCNC1=O)NC(=O)[C@H](Cc1ccc(F)cc1)n1cccc(NC(=O)c2cc(C)on2)c1=O [Compound 25, trans-(2′S,3′″″S,4S)-4-(3′-(4″-Fluorophenyl)-2′-{3′″-[(5″″-methylisoxazole-3″″-carbonyl)amino]-2′-oxo-2′″H-pyridin-1′″-yl}propionylamino)-5-(2′″″-oxopyrrolidin-3′″″-yl)pent-2-enoic Acid Ethyl Ester]",kinact/KI,[1]; HRV-14,1.25e+06 M⁻¹ s⁻¹
same,EC50,HRV-14,2 nM
same,CC50 at 2 days,[2]; line of HRV-14,> 10000 nM
same,CC50,H1-HeLa cells; line of HRV-1A,> 10000 nM
same,CC50,H1-HeLa cells; line of HRV-2,> 10000 nM
same,CC50,H1-HeLa cells; line of HRV-3,> 10000 nM
same,CC50,H1-HeLa cells; line of HRV-9,> 10000 nM
same,CC50,H1-HeLa cells; line of HRV-10,> 10000 nM
same,CC50,H1-HeLa cells; line of HRV-16,> 10000 nM
same,CC50,H1-HeLa cells; line of HRV-25,> 10000 nM
same,CC50,H1-HeLa cells; line of HRV-39,> 10000 nM
same,CC50,H1-HeLa cells; line of HRV-87,> 10000 nM
same,EC50,"[3]; H1-HeLa, HRV-1A",15 nM
same,EC50,"[3]; H1-HeLa, HRV-2",4 nM
same,EC50,[3]; [7],4 nM
same,EC50,[3]; [4],10 nM
same,EC50,[3]; [5],4 nM
same,EC50,[3]; [9],5 nM
same,EC50,[3]; [6],22 nM
same,EC50,[3]; [10],9 nM
same,EC50,"[3]; Human rhinovirus sp., HRV87, H1-HeLa, HRV-87",8 nM
"Cc1cc(C(=O)Nc2cccn([C@@H](Cc3ccc(F)cc3)C(=O)N[C@H](/C=C/C(=O)OC(C)C)C[C@@H]3CCNC3=O)c2=O)no1 [Compound 67, trans-(2′S,3″″″S)-4-[3′-(4″-Fluorophenyl)-2′-(3′″-{[1″″-(5′″″-methylisoxazol-3′″″-yl)methanoyl]amino}-2″″-oxo-2″″H-pyridin-1″″-yl)propanoylamino]-5-(2″″″-oxopyrrolidin-3″″″-yl)pent-2-enoic Acid Isopropyl Ester]",kinact/KI,[1]; HRV-14 3C protease,462000 M⁻¹ s⁻¹
same,EC50,HRV-14,57 nM
same,CC50 at 2 days,[2]; HRV-14,> 10000 nM
same,CC50,H1-HeLa cells; HRV-3,> 10000 nM
same,CC50,H1-HeLa cells; HRV-9,> 10000 nM
same,CC50,H1-HeLa cells; HRV-13,> 10000 nM
same,CC50,H1-HeLa cells; HRV-16,> 10000 nM
same,CC50,H1-HeLa cells; HRV-39,> 10000 nM
same,CC50,H1-HeLa cells; HRV-78,> 10000 nM
same,EC50,[3]; [7],19 nM
same,EC50,[3]; [4],162 nM
same,EC50,[3]; [8],162 nM
same,EC50,[3]; [9],33 nM
same,EC50,[3]; [10],38 nM
same,EC50,[3]; [11],48 nM
"Cc1cc(C(=O)Nc2cccn([C@@H](Cc3ccc(F)c(F)c3)C(=O)N[C@H](/C=C/C(=O)OC3CCCCC3)C[C@@H]3CCNC3=O)c2=O)no1 [Compound 54, trans-(2′S,3″″″S,4S)-4-[3′-(3″,4″-Difluorophenyl)-2′-(3′″-{[1″″-(5′″″-methylisoxazol-3′″″-yl)methanoyl]amino}-2″″-oxo-2″″H-pyridin-1″″-yl)propanoylamino]-5-(2″″″-oxopyrrolidin-3″″″-yl)pent-2-enoic Acid Cyclohexyl Ester]",kinact/KI,[1]; HRV-14,244000 M⁻¹ s⁻¹
same,EC50,HRV-14,45 nM
same,CC50 at 2 days,[2]; line of HRV-14,> 10000 nM
same,CC50,H1-HeLa cells; line of HRV-1A,> 10000 nM
same,CC50,H1-HeLa cells; line of HRV-2,> 10000 nM
same,CC50,H1-HeLa cells; line of HRV-9,> 10000 nM
same,CC50,H1-HeLa cells; line of HRV-10,> 10000 nM
same,CC50,H1-HeLa cells; line of HRV-16,> 10000 nM
same,CC50,H1-HeLa cells; line of HRV-25,> 10000 nM
same,CC50,H1-HeLa cells; line of HRV-39,> 10000 nM
same,EC50,"[3]; H1-HeLa, HRV-1A",490 nM
same,EC50,"[3]; H1-HeLa, HRV-2",148 nM
same,EC50,[3]; [4],517 nM
same,EC50,[3]; [5],131 nM
same,EC50,[3]; [9],142 nM
same,EC50,[3]; [6],215 nM
same,EC50,[3]; [10],346 nM
